Test results published in patent US20250026752A1, “POSITIVE ALLOSTERIC MODULATORS OF THE MUSCARINIC ACETYLCHOLINE RECEPTOR M4” (Vanderbilt University, priority 2021, published 2025).

Biological target: T1, human mAChR M4 (Homo sapiens, UniProt P08173)
T1 construct: expressed in transfected cells; host or cells: CHO-K1 (ATCC), stably expressing hM4 and Gqi5
T1 sequence (P08173 1-479): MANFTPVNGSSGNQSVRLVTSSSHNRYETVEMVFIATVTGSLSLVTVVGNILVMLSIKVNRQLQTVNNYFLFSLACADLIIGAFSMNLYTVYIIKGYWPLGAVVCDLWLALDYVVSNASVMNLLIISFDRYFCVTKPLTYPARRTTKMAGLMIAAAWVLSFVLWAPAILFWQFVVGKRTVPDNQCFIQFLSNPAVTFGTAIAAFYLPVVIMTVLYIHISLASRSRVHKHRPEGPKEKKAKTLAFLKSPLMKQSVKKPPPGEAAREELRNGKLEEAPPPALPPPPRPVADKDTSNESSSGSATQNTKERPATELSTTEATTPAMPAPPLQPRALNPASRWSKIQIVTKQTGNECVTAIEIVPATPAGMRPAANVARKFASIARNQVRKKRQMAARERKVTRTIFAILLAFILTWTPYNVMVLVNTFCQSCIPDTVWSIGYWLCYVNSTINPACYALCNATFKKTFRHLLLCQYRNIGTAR
Assay: mAChR M4 cell-based functional assay: calcium flux (Fluo-4, FDSS), positive allosteric modulator activity on the EC20 acetylcholine response, hM4-Gqi5 CHO-K1 cells
Settings: for Emax at 30 µM: CHO-K1, human M4, % ACh maximum at 30 μM; for EC50: human M4, PAM activity on EC20 acetylcholine response, calcium flux, read-out: Human M4 EC50
In short: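 CHO-K1 cells stably expressing human M4 with chimeric Gqi5, loaded with Fluo-4 AM for 50 min at 37° C. Compounds (11-point, 1:3 dilutions) added first, then an acetylcholine EC20 at 144 s; calcium read on FDSS at 1 Hz. EC50 is the half-maximal increase above the EC20 baseline, four-parameter logistic fit.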

Cc1cnn(C)c1-c1cnc2c(c1)CN(c1ncnc3cc(F)c(F)cc13)CC2 [Compound 270, 4-(3-(1,4-dimethyl-1H-pyrazol-5-yl)-7,8-dihydro-1,6-naphthyridin-6(5H)-yl)-6,7-difluoroquinazoline]
Emax at 30 µM: 86%
EC50: 100 nM

Cn1nc(C(F)(F)F)cc1-c1cnc2c(c1)CN(c1ncnc3cc(F)c(F)cc13)CC2 [Compound 271, 6,7-difluoro-4-(3-(1-methyl-3-(trifluoromethyl)-1H-pyrazol-5-yl)-7,8-dihydro-1,6-naphthyridin-6(5H)-yl)quinazoline]
Emax at 30 µM: 80%
EC50: 950 nM

CN1CCN(c2cnc3c(c2)CN(c2ncnc4ccc(F)cc24)CC3)CC1=O [Compound 272, 4-(6-(6-fluoroquinazolin-4-yl)-5,6,7,8-tetrahydro-1,6-naphthyridin-3-yl)-1-methylpiperazin-2-one]
Emax at 30 µM: 92%
EC50: 1150 nM

CN1CCN(c2cnc3c(c2)CN(c2ncnc4cc(F)c(F)cc24)CC3)CC1=O [Compound 273, 4-(6-(6,7-difluoroquinazolin-4-yl)-5,6,7,8-tetrahydro-1,6-naphthyridin-3-yl)-1-methylpiperazin-2-one]
Emax at 30 µM: 84%
EC50: 880 nM

Cc1nc(N2CCc3ncc(N4CCN(C)C(=O)C4)cc3C2)c2cc(Cl)ccc2n1 [Compound 274, 4-(6-(6-chloro-2-methylquinazolin-4-yl)-5,6,7,8-tetrahydro-1,6-naphthyridin-3-yl)-1-methylpiperazin-2-one]
Emax at 30 µM: 82%
EC50: 650 nM

Fc1ccc2ncnc(N3CCc4ncc(N5CCCn6ccnc65)cc4C3)c2c1 [Compound 275, 4-(3-(6,7-dihydroimidazo[1,2-a]pyrimidin-8(5H)-yl)-7,8-dihydro-1,6-naphthyridin-6(5H)-yl)-6-fluoroquinazoline]
Emax at 30 µM: 73%
EC50: 2240 nM

Fc1ccc2ncnc(N3CCc4ncc(N5CCCn6nc(C(F)(F)F)cc65)cc4C3)c2c1 [Compound 276, 6-fluoro-4-(3-(2-(trifluoromethyl)-6,7-dihydropyrazolo[1,5-a]pyrimidin-4(5H)-yl)-7,8-dihydro-1,6-naphthyridin-6(5H)-yl)quinazoline]
Emax at 30 µM: 96%
EC50: 320 nM

Fc1cc2ncnc(N3CCc4ncc(N5CCCn6ccnc65)cc4C3)c2cc1F [Compound 277, 4-(3-(6,7-dihydroimidazo[1,2-a]pyrimidin-8(5H)-yl)-7,8-dihydro-1,6-naphthyridin-6(5H)-yl)-6,7-difluoroquinazoline]
Emax at 30 µM: 67%
EC50: 2630 nM

Fc1cc2ncnc(N3CCc4ncc(N5CCCn6nc(C(F)(F)F)cc65)cc4C3)c2cc1F [Compound 278, 6,7-difluoro-4-(3-(2-(trifluoromethyl)-6,7-dihydropyrazolo[1,5-a]pyrimidin-4(5H)-yl)-7,8-dihydro-1,6-naphthyridin-6(5H)-yl)quinazoline]
Emax at 30 µM: 76%
EC50: 410 nM

CC(C)(C)c1cc2n(n1)CCCN2c1cnc2c(c1)CN(c1ncnc3ccc(F)cc13)CC2 [Compound 279, 4-(3-(2-(tert-butyl)-6,7-dihydropyrazolo[1,5-a]pyrimidin-4(5H)-yl)-7,8-dihydro-1,6-naphthyridin-6(5H)-yl)-6-fluoroquinazoline]
Emax at 30 µM: 72%
EC50: 810 nM

Fc1ccc2ncnc(N3CCc4ncc(N5CCCn6nc(C7CC7)cc65)cc4C3)c2c1 [Compound 280, 4-(3-(2-cyclopropyl-6,7-dihydropyrazolo[1,5-a]pyrimidin-4(5H)-yl)-7,8-dihydro-1,6-naphthyridin-6(5H)-yl)-6-fluoroquinazoline]
Emax at 30 µM: 90%
EC50: 390 nM

[2H]C1([2H])N(c2cnc3c(c2)CN(c2ncnc4ccc(F)cc24)CC3)c2ccnn2C([2H])([2H])C1([2H])[2H] [Compound 281, 4-(3-(6,7-dihydropyrazolo[1,5-a]pyrimidin-4(5H)-yl-5,5,6,6,7,7-d6)-7,8-dihydro-1,6-naphthyridin-6(5H)-yl)-6-fluoroquinazoline]
Emax at 30 µM: 104%
EC50: 30 nM

[2H]C1([2H])N(c2cnc3c(c2)CN(c2ncnc4cc(F)c(F)cc24)CC3)c2ccnn2C([2H])([2H])C1([2H])[2H] [Compound 282, 4-(3-(6,7-dihydropyrazolo[1,5-a]pyrimidin-4(5H)-yl-5,5,6,6,7,7-d6)-7,8-dihydro-1,6-naphthyridin-6(5H)-yl)-6,7-difluoroquinazoline]
Emax at 30 µM: 111%
EC50: 30 nM

CN1CCN(c2cnc3c(c2)CN(c2ncnc4ccc(F)cc24)CC3)CC12COC2 [Compound 283, 8-(6-(6-fluoroquinazolin-4-yl)-5,6,7,8-tetrahydro-1,6-naphthyridin-3-yl)-5-methyl-2-oxa-5,8-diazaspiro[3.5]nonane]
Emax at 30 µM: 99%
EC50: 700 nM

CN1CCN(c2cnc3c(c2)CN(c2ncnc4cc(F)c(F)cc24)CC3)CC12COC2 [Compound 284, 8-(6-(6,7-difluoroquinazolin-4-yl)-5,6,7,8-tetrahydro-1,6-naphthyridin-3-yl)-5-methyl-2-oxa-5,8-diazaspiro[3.5]nonane]
Emax at 30 µM: 104%
EC50: 500 nM

Cc1nc(N2CCc3ncc(N4CCN(C)C5(COC5)C4)cc3C2)c2cc(Cl)ccc2n1 [Compound 285, 8-(6-(6-chloro-2-methylquinazolin-4-yl)-5,6,7,8-tetrahydro-1,6-naphthyridin-3-yl)-5-methyl-2-oxa-5,8-diazaspiro[3.5]nonane]
Emax at 30 µM: 98%
EC50: 580 nM

Fc1cc2ncnc(N3CCc4ncc(CC(F)(F)F)cc4C3)c2cc1F [Compound 286, 6,7-difluoro-4-(3-(2,2,2-trifluoroethyl)-7,8-dihydro-1,6-naphthyridin-6(5H)-yl)quinazoline]
Emax at 30 µM: 97%
EC50: 170 nM

Cc1nc(N2CCc3ncc(CC(F)(F)F)cc3C2)c2cc(Cl)ccc2n1 [Compound 287, 6-chloro-2-methyl-4-(3-(2,2,2-trifluoroethyl)-7,8-dihydro-1,6-naphthyridin-6(5H)-yl)quinazoline]
Emax at 30 µM: 85%
EC50: 360 nM

C[C@@H]1CCN(c2cnc3c(c2)CN(c2ncnc4ccc(F)cc24)CC3)c2ccnn21 [Compound 288, (R)-6-fluoro-4-(3-(7-methyl-6,7-dihydropyrazolo[1,5-a]pyrimidin-4(5H)-yl)-7,8-dihydro-1,6-naphthyridin-6(5H)-yl)quinazoline]
Emax at 30 µM: 75%
EC50: 40 nM

C[C@H]1CCN(c2cnc3c(c2)CN(c2ncnc4ccc(F)cc24)CC3)c2ccnn21 [Compound 289, (S)-6-fluoro-4-(3-(7-methyl-6,7-dihydropyrazolo[1,5-a]pyrimidin-4(5H)-yl)-7,8-dihydro-1,6-naphthyridin-6(5H)-yl)quinazoline]
Emax at 30 µM: 72%
EC50: 490 nM

CC(O)(c1cnc2c(c1)CN(c1ncnc3cc(F)c(F)cc13)CC2)C(F)(F)F (centres unmarked) [Compound 290, 2-(6-(6,7-difluoroquinazolin-4-yl)-5,6,7,8-tetrahydro-1,6-naphthyridin-3-yl)-1,1,1-trifluoropropan-2-ol]
Emax at 30 µM: 91%
EC50: 200 nM

Cc1nc(N2CCc3ncc(C(C)(O)C(F)(F)F)cc3C2)c2cc(Cl)ccc2n1 (centres unmarked) [Compound 291, 2-(6-(6-chloro-2-methylquinazolin-4-yl)-5,6,7,8-tetrahydro-1,6-naphthyridin-3-yl)-1,1,1-trifluoropropan-2-ol]
Emax at 30 µM: 97%
EC50: 400 nM

Cc1ccccc1-c1cnc2c(c1)CN(c1ncnc3ccc(F)cc13)CC2 [Compound 292, 6-fluoro-4-(3-(o-tolyl)-7,8-dihydro-1,6-naphthyridin-6(5H)-yl)quinazoline]
Emax at 30 µM: 79%
EC50: 660 nM

Cc1ccc(F)cc1-c1cnc2c(c1)CN(c1ncnc3ccc(F)cc13)CC2 [Compound 293, 6-fluoro-4-(3-(5-fluoro-2-methylphenyl)-7,8-dihydro-1,6-naphthyridin-6(5H)-yl)quinazoline]
Emax at 30 µM: 80%
EC50: 740 nM

Cc1nc(N2CCc3ncc(-c4ccccc4C)cc3C2)c2cc(F)ccc2n1 [Compound 294, 6-fluoro-2-methyl-4-(3-(o-tolyl)-7,8-dihydro-1,6-naphthyridin-6(5H)-yl)quinazoline]
Emax at 30 µM: 68%
EC50: 1630 nM

Cc1nc(N2CCc3ncc(-c4cc(F)ccc4C)cc3C2)c2cc(F)ccc2n1 [Compound 295, 6-fluoro-4-(3-(5-fluoro-2-methylphenyl)-7,8-dihydro-1,6-naphthyridin-6(5H)-yl)-2-methylquinazoline]
Emax at 30 µM: 85%
EC50: 2630 nM

COc1ccc2ncnc(N3CCc4ncc(-c5ccccc5C)cc4C3)c2c1 [Compound 296, 6-methoxy-4-(3-(o-tolyl)-7,8-dihydro-1,6-naphthyridin-6(5H)-yl)quinazoline]
Emax at 30 µM: 102%
EC50: 1370 nM

COc1ccc2ncnc(N3CCc4ncc(-c5cc(F)ccc5C)cc4C3)c2c1 [Compound 297, 4-(3-(5-fluoro-2-methylphenyl)-7,8-dihydro-1,6-naphthyridin-6(5H)-yl)-6-methoxyquinazoline]
Emax at 30 µM: 101%
EC50: 1550 nM
